According to PMC11230136 (Cell reports, 2024):

Key:
[1] = system: pilocarpine-induced SE mice; test: Pilocarpine-induced status epilepticus
hippocampal neurons = test: Apoptotic nuclei; assay type: cell-based, rat; details: 1-h 100 μM NMDA, co-incubation with 5 μM inhibitor
[2] = target: activated c-Abl immunoprecipitated from neurons (Rattus norvegicus, UniProt A0ABK0LKB8); test: In vitro phosphorylation kinase assay; assay type: biochemical; details: pre-incubation with 5 μM inhibitor (controls)
[3] = In vivo toxicity / tolerability observation; set-up: species or system mouse; details: diet 20, 67 or 200 ppm for 14 days
[4] = i.p. pre-treatment 12.5 mg/kg for 3 days, 60 min post pilocarpine
[5] = diet for 15 days (neurotinib 67 ppm, nilotinib 200 ppm), 60 min post pilocarpine

Sequence of activated c-Abl immunoprecipitated from neurons (A0ABK0LKB8 1-1124): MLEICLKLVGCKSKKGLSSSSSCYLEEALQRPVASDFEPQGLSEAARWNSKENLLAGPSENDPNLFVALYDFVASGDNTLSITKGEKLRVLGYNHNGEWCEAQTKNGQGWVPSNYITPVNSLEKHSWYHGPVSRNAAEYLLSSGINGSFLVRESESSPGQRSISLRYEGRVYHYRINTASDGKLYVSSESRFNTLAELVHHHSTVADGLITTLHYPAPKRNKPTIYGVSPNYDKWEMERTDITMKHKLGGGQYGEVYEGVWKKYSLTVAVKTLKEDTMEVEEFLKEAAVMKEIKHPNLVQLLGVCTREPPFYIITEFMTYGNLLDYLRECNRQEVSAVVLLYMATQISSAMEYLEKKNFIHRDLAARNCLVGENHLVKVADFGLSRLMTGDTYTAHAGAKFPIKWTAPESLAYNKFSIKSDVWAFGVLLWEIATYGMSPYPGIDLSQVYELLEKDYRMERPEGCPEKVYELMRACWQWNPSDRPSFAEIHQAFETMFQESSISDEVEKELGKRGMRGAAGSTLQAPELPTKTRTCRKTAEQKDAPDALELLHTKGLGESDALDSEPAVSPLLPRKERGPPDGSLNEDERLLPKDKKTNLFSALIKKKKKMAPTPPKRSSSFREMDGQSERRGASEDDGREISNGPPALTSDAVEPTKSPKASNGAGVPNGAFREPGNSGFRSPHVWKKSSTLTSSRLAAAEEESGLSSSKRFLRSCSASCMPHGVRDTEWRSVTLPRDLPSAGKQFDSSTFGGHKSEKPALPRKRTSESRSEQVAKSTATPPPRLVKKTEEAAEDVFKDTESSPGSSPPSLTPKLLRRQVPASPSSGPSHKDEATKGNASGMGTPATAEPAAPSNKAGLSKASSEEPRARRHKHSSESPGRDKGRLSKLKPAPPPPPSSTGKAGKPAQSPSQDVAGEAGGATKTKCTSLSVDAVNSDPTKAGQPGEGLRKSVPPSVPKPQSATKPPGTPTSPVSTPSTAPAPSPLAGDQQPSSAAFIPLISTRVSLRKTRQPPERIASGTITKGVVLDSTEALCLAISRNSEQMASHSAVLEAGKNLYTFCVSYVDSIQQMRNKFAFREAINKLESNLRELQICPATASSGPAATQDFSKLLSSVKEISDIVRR

Cc1ccc(NC(=O)c2ccc(CN3CCN(C)CC3)cc2)cc1Nc1nccc(-c2cccnc2)n1 [imatinib]
Mice with SE [1, 4]: 68%
Mice with single seizures but no SE [1, 4]: 29%
Total mortality [1, 4]: 36%
apoptotic nuclei (Hoechst) (hippocampal neurons): apoptosis reduction
CRKII-GST phosphorylation [2]: inhibits CRKII-GST phosphorylation

Cc1cn(-c2cc(NC(=O)c3ccc(C)c(Nc4nccc(-c5cccnc5)n4)c3)cc(C(F)(F)F)c2)cn1 [nilotinib]
Mice with SE [1, 5]: 70%
Total mortality [1, 5]: none
Latency SE ([1]; diet for 15 days (neurotinib 67 ppm, nilotinib 200 ppm), mean ± SEM): 32.6 ± 6.1 min
acute toxicity or changes in behavior [3]: No signs of acute toxicity or changes in behavior
